From patent EP4671246A1, “6-ALKOXYPYRAZOLOPYRIMIDINE COMPOUND AND PHARMACEUTICAL USE THEREOF” (Japan Tobacco Inc., priority 2023, dated 2024) come the findings set out here.

The structures appear in SMILES notation.

T1 sequence (Q96P20 whole entry): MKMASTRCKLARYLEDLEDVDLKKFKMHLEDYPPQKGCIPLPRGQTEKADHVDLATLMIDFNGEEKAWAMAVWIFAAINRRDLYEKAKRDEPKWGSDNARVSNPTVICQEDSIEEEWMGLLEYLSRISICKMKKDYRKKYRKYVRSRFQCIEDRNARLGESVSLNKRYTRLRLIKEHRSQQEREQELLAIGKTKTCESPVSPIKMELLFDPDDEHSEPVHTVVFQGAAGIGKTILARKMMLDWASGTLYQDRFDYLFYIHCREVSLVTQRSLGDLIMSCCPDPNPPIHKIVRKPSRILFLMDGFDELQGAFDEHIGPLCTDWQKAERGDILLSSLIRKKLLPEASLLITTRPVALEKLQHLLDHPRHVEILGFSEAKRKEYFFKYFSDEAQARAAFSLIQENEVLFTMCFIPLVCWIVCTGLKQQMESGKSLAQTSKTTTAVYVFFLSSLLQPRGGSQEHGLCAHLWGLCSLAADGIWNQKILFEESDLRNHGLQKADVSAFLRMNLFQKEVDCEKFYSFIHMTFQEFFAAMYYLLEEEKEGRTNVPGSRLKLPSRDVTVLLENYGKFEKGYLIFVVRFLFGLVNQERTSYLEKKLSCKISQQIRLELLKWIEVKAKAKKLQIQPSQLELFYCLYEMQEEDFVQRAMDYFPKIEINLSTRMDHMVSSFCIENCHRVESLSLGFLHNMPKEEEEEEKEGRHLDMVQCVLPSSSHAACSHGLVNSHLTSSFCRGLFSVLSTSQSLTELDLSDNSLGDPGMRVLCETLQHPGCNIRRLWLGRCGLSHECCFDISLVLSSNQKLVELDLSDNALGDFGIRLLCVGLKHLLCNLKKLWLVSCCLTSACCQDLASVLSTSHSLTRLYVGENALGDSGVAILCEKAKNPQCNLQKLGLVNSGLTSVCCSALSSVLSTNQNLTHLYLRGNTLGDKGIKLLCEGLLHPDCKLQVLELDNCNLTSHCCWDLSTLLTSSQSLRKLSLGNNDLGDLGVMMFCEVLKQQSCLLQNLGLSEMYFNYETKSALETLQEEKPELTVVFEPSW

This test concerns the target T1, NLRP3 inflammasome (Homo sapiens, UniProt Q96P20).
T1 construct: host or cells: THP1-Null cells (PMA-differentiated, LPS-primed, nigericin-stimulated)
The experiment in a line: Evaluation of NLRP3 inflammasome inhibitory activity (inhibition of IL-1β production in THP1-Null cells). Type of test: cell-based. To be noted: 0.5 µmol/L PMA overnight, 1 µg/mL Lipopolysaccharides 3 hours, Nigericin 7.5 µmol/L 1.5 hours, AlphaLISA Human IL-1β. The procedure: The NLRP3 inflammasome inhibitory activity of test compounds were evaluated on the basis of the inhibitory activity of the IL-1β production in THP1-Null cells (Product Number: thp-null, InvivoGen). Cells were maintained for culture in RPMI-1640 media containing 10% (v/v) fetal bovine serum, 25 mmol/L HEPES, 100 U/mL penicillin, 100 µg/mL streptomycin, 100 µg/mL normocin, and 200 µg/mL hygromycin B (set at 37°C, 5% CO2/95% air) .
Cells were suspended with media for assay containing 0.5 µmol/L PMA (RPMI-1640 media containing 10% (v/v) fetal bovine serum, 100 U/mL penicillin, and 100 µg/mL streptomycin), and the suspended cells were seeded on Corning (registered trademark) 384-well Flat Clear Bottom Black Polystyrene TC-treated Microplates (25,000 cells/25 µL/well), followed by incubation (set at 37°C, 5% CO2/95% air) overnight. The supernatant of the culture was removed, and thereto was added media for assay (25 µL/well) containing 1 µg/mL Lipopolysaccharides (Product Number: L2654, Sigma-Aldrich (registered trademark)). Then, the culture was further incubated for 3 hours (set at 37°C, 5% CO2/95% air) . The supernatant of the culture was removed. Then, a vehicle solution prepared from Opti-MEM (trademark) medium (Product Number: 31985-070, Invitrogen) was added to blank-setting wells and control-setting wells (20 µL/well), followed by incubation for 15 minutes (set at 37°C, 5% CO2/95% air). A solution containing a test compound (20 µL/well) was added to test compound-setting wells. Further, Opti-MEM (trademark) medium containing Nigericin (Product Number: N7143, Sigma-Aldrich (registered trademark)) was added to the control-setting wells and test compound-setting wells (5 µL/well), followed by incubation for 1.5 hours (set at 37°C, 5% CO2/95% air). The final concentration of Nigericin was adjusted to be 7.5 µmol/L. 5 µL/well of Opti-MEM (trademark) medium was added to the blank-setting wells. The supernatant of the culture was cryonically stored (set at -20°C) until measurement of IL-1β.
The amount of IL-1β in the culture supernatant was quantitated with AlphaLISA (registered trademark) Human IL-1β Detection Kit (Product Number: AL220C, Perkin Elmer). Fluorescence intensity was measured with a microplate reader EnSpier (Model number: 2300-00J, Perkin Elmer) or EnSight (Model number: HH34000000, Perkin Elmer) according to procedure manuals attached thereto. Inhibition rates of the test compound-setting wells were calculated on the basis of 100% for the blank-setting wells and 0% for the control-setting wells. IC50 values (i.e., 50% inhibitory concentrations) of the test compounds were calculated by logistic regression analysis.
On the technique in general: In Alpha technology, singlet oxygen from a donor bead excites a nearby acceptor bead.
Usually IC50 stands for the concentration that inhibits the measured activity by half. High values mean weaker potency in that assay, low ones greater potency in that assay. For `COc1nc2nn(-c3ccc(Br)cc3C(O)C3CC3)cc2c(=O)[nH]1` (racemic) [Example 53], 160 nM corresponded to half-maximal inhibition (IC50). `COc1nc2nn(-c3c(C)cc(C4CC4(F)F)cc3C)cc2c(=O)[nH]1` (racemic) [Example 120] gave an IC50 of 88 nM.

In turn, `COc1nc2nn(-c3ccccc3C)cc2c(=O)[nH]1` [Example 1] returned an IC50 of 4200 nM.

For the compound `COc1nc2nn(-c3ccc(C)cc3C)cc2c(=O)[nH]1` [Example 2], the IC50 was found to be 79 nM. Against the preceding compound, the IC50 is about 53-fold lower. The figure for `Cc1cc(C)c(-n2cc3c(=O)[nH]c(OCC4CC4)nc3n2)c(C)c1` [Example 3] is 9 nM; for `COCCOc1nc2nn(-c3c(C)cc(C)cc3C)cc2c(=O)[nH]1` [Example 4] it is 74 nM; for `Cc1cc(C)c(-n2cc3c(=O)[nH]c(OC(C)C)nc3n2)c(C)c1` [Example 5] it is 34 nM.

`Cc1cc(C)c(-n2cc3c(=O)[nH]c(OCC(F)(F)F)nc3n2)c(C)c1` [Example 6] came in with a half-inhibitory concentration (IC50) of 180 nM. This IC50 lies about 5.3-fold higher than the previous one. `Cc1cc(C)c(-n2cc3c(=O)[nH]c(OCc4ccccc4)nc3n2)c(C)c1` [Example 7]: the IC50 came out at 72 nM. In the case of `COc1nc2nn(-c3c(C)cc(C)cc3C)cc2c(=O)[nH]1` [Example 8], the half-maximal inhibitory concentration (IC50) was found to be 37 nM. This IC50 lies about 1.9-fold lower than the previous one. With `CCOc1nc2nn(-c3c(C)cc(C)cc3C)cc2c(=O)[nH]1` [Example 9], inhibition was half-maximal at 23 nM (IC50). The figure for `[2H]C([2H])([2H])Oc1nc2nn(-c3ccc(C(F)(F)F)cc3OC([2H])([2H])[2H])cc2c(=O)[nH]1` [Example 10] is 61 nM. Compound `COc1nc2nn(-c3ccc(Cl)cc3C)cc2c(=O)[nH]1` [Example 11] came in with an IC50 of 50 nM. In turn, `COc1nc2nn(-c3c(C)cc(Br)cc3C)cc2c(=O)[nH]1` [Example 12, 2-(4-bromo-2,6-dimethylphenyl)-6-methoxy-2,5-dihydro-4H-pyrazolo[3,4-d]pyrimidin-4-one] had an IC50 of 9 nM. The figure for `COc1cc(C)c(-n2cc3c(=O)[nH]c(OC)nc3n2)c(C)c1` [Example 13, 6-methoxy-2-(4-methoxy-2,6-dimethylphenyl)-2,5-dihydro-4H-pyrazolo[3,4-d]pyrimidin-4-one] is 22 nM; for `COc1nc2nn(-c3c(C)cc(C4CC4)cc3C)cc2c(=O)[nH]1` [Example 14] it is 8 nM. The figure for `COc1nc2nn(-c3c(Cl)cc(C(F)(F)F)cc3OC)cc2c(=O)[nH]1` [Example 15] is 1300 nM; for `Cc1cc(Br)cc(C)c1-n1cc2c(=O)[nH]c(OC3CCOCC3)nc2n1` [Example 16] it is 25 nM; for `Cc1cc(Br)cc(C)c1-n1cc2c(=O)[nH]c(OCC3(C#N)CC3)nc2n1` [Example 17] it is 73 nM. Next, `COCC1(COc2nc3nn(-c4c(C)cc(Br)cc4C)cc3c(=O)[nH]2)CC1` [Example 18]: 34 nM; `Cc1cc(Br)cc(C)c1-n1cc2c(=O)[nH]c(OCCC(C)(C)O)nc2n1` [Example 20]: 22 nM; `Cc1cc(Br)cc(C)c1-n1cc2c(=O)[nH]c(OCC(C)(C)O)nc2n1` [Example 21]: 74 nM.

The compound `COc1nc2nn(-c3c(C)cc(C(F)(F)F)cc3C)cc2c(=O)[nH]1` [Example 22] showed an IC50 of 43 nM.

Consider `COc1nc2nn(-c3c(C)cc(Br)cc3C)cc2c(=O)n1C` [Example 23], for which the concentration for half-maximal inhibition (IC50) turned out to be 680 nM. `COc1ccc(-n2cc3c(=O)[nH]c(OC)nc3n2)c(C(F)(F)F)c1` [Example 24]: the IC50 was determined as 53 nM. The figure for `Cc1cc(Br)cc(C)c1-n1cc2c(=O)[nH]c(OCCN(C)C)nc2n1` [Example 25] is 53 nM. On to `COc1nc2nn(-c3cc(C)c(Cl)cc3C)cc2c(=O)[nH]1` [Example 26], for which the concentration for half-maximal inhibition (IC50) came to 1200 nM. Next, `COc1nc2nn(-c3c(C)cc(C4(O)CCC4)cc3C)cc2c(=O)[nH]1` [Example 27]: 990 nM; `COc1nc2nn(-c3c(C)cc(C4CC4)cc3F)cc2c(=O)[nH]1` [Example 28]: 15 nM; `COc1nc2nn(-c3c(C)cc(C4CC4)cc3OC)cc2c(=O)[nH]1` [Example 29]: 54 nM.

Consider `Cc1cc(Br)cc(C)c1-n1cc2c(=O)[nH]c(OCCC3COC3)nc2n1` [Example 30], for which 51 nM corresponded to half-maximal inhibition (IC50). In turn, `COc1nc2nn(-c3c(C)cc(C(C)(C)O)cc3C)cc2c(=O)[nH]1` [Example 31] gave an IC50 of 2400 nM. The figure for `COc1nc2nn(-c3ccc(Cl)c(C)c3C)cc2c(=O)[nH]1` [Example 32] is 760 nM. The compound `Cc1cc(Br)cc(C)c1-n1cc2c(=O)[nH]c(OC(C)C)nc2n1` [Example 33] came in with an IC50 of 24 nM. The figure for `CCOc1nc2nn(-c3c(C)cc(Br)cc3C)cc2c(=O)[nH]1` [Example 34] is 12 nM. In the case of `Cc1cc(Br)cc(C)c1-n1cc2c(=O)[nH]c(OCCCS(C)(=O)=O)nc2n1` [Example 35], the half-maximal inhibitory concentration (IC50) was found to be 7 nM.

The compound `Cc1cc(Br)cc(C)c1-n1cc2c(=O)[nH]c(O[C@@H]3CCOC3)nc2n1` [Example 36] yielded an IC50 of 19 nM. For `Cc1cc(Br)cc(C)c1-n1cc2c(=O)[nH]c(O[C@H]3CCOC3)nc2n1` [Example 37], half-maximal inhibition (IC50) was put at 13 nM. The IC50 values of the last two compounds are within 1.5-fold of each other. Compound `Cc1cc(C2CC2)cc(C)c1-n1cc2c(=O)[nH]c(OCCCS(C)(=O)=O)nc2n1` [Example 38] gave an IC50 of 8 nM. This IC50 is about 1.6-fold lower than that of the compound before.

`COc1nc2nn(-c3c(C)cc(OC(F)F)cc3C)cc2c(=O)[nH]1` [Example 39, 2-(4-(difluoromethoxy)-2,6-dimethylphenyl)-6-methoxy-2,5-dihydro-4H-pyrazolo[3,4-d]pyrimidin-4-one] gave an IC50 of 18 nM.

Turning to `COc1nc2nn(-c3ccc(C4CC4)cc3OC)cc2c(=O)[nH]1` [Example 40], the IC50 was found to be 49 nM. This IC50 is about 2.7-fold higher than that of the compound before. The figure for `COCc1cc(Br)ccc1-n1cc2c(=O)[nH]c(OC)nc2n1` [Example 41] is 70 nM.

Turning to `COCc1cc(C2CC2)ccc1-n1cc2c(=O)[nH]c(OC)nc2n1` [Example 42], half-maximal inhibition (IC50) was put at 63 nM.

As for `COc1nc2nn(-c3ccc(Br)cc3C(F)(F)F)cc2c(=O)[nH]1` [Example 43], the IC50 is 38 nM. `Cc1cc(Br)cc(C)c1-n1cc2c(=O)[nH]c(OC3CCS(=O)(=O)CC3)nc2n1` [Example 44]: the concentration for half-maximal inhibition (IC50) is 43 nM.

`COc1nc2nn(-c3ccc(C4CC4)cc3C(F)(F)F)cc2c(=O)[nH]1` [Example 45] gave an IC50 of 14 nM. Compared with the last compound, the IC50 is about 3.1-fold lower. Next, `Cc1cc(C2CC2)cc(C)c1-n1cc2c(=O)[nH]c(OC3CCS(=O)(=O)CC3)nc2n1` [Example 46]: 33 nM. As for `COc1nc2nn(-c3ccc(Br)cc3C3CC3)cc2c(=O)[nH]1` [Example 47], it took 53 nM to reach half-maximal inhibition (IC50). Against the preceding compound, the IC50 is about 1.6-fold higher. Take `COc1ccc(-n2cc3c(=O)[nH]c(OC)nc3n2)c(C2CC2)c1` [Example 48]: half-maximal inhibition (IC50) required 190 nM.

`CCOc1nc2nn(-c3ccc(OC)cc3Br)cc2c(=O)[nH]1` [Example 49] displayed an IC50 of 73 nM.

Compound `CCOc1nc2nn(-c3c(C)cc(C4CC4)cc3C)cc2c(=O)[nH]1` [Example 50] displayed an IC50 of 10 nM. The figure for `CCOc1nc2nn(-c3c(C)cc(OC)cc3C)cc2c(=O)[nH]1` [Example 51] is 27 nM; for `Cc1cc(Br)cc(C)c1-n1cc2c(=O)[nH]c(OC3CCC(S(C)(=O)=O)CC3)nc2n1` (stereo not shown) [Example 52] it is 59 nM. In turn, `CCOc1nc2nn(-c3c(C)cc(OC(F)F)cc3C)cc2c(=O)[nH]1` [Example 54] came in with an IC50 of 13 nM.

`COc1nc2nn(-c3ccc(Cl)cc3CC3CC3)cc2c(=O)[nH]1` [Example 55]: inhibition was half-maximal at 70 nM (IC50). Compared with the last compound, the IC50 is about 5.4-fold higher. In the case of `COc1nc2nn(-c3ccc(C4CC4)cc3C3CC3)cc2c(=O)[nH]1` [Example 56], half-maximal inhibition (IC50) was put at 18 nM. In the case of `COc1nc2nn(-c3c(C)cc(Cl)cc3C)cc2c(=O)[nH]1` [Example 57], the half-maximal inhibitory concentration (IC50) is 58 nM. This IC50 lies about 3.2-fold higher than the previous one. `Cc1cc(Br)cc(C)c1-n1cc2c(=O)[nH]c(OCCCS(=O)(=O)C(C)C)nc2n1` [Example 58] yielded an IC50 of 6 nM. This IC50 is about 9.7-fold lower than that of the compound before.

The compound `COc1nc2nn(-c3ccc(Br)cc3C(F)F)cc2c(=O)[nH]1` [Example 59] had an IC50 of 55 nM.

For the compound `COc1nc2nn(-c3ccc(C4CC4)cc3C(F)F)cc2c(=O)[nH]1` [Example 60], half-maximal inhibition (IC50) was put at 16 nM. Compared with the last compound, the IC50 is about 3.4-fold lower. `COc1nc2nn(-c3c(C)cc(OC(F)(F)F)cc3C)cc2c(=O)[nH]1` [Example 61] registered a half-maximal inhibitory concentration (IC50) of 69 nM. Compared with the last compound, the IC50 is about 4.3-fold higher.
